Reference: patent publication US20220289728A1, “MODULATORS OF TREX1” (Constellation Pharmaceuticals, Inc., priority 2019, published 2022)

Experiments:
full length human TREX1 = target: T1, full length human TREX1 (Homo sapiens, UniProt Q9NSU2); experiment: TREX1 Biochemical Assay (fluorescence, dsDNA substrate degradation); settings: 150 pM TREX1, 60 nM dsDNA substrate, 25 minutes at room temperature
T1 construct: N-terminally His-Tev tagged full length human TREX1; His-TEV (His tag with TEV site) (N); made in house; host or cells: E. coli
T1 sequence (Q9NSU2 1-314): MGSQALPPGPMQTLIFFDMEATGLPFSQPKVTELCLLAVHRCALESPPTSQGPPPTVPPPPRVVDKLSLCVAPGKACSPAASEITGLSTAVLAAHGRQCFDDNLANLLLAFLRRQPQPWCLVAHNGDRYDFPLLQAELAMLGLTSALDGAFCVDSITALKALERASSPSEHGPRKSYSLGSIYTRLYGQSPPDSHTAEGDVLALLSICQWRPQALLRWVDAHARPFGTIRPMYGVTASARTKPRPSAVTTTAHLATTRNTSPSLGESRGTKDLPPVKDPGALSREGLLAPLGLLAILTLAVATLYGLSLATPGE
Description: Degradation of the dsDNA liberates free fluorophore to produce a fluorescent signal. Specifically, 7.5 μL of N-terminally His-Tev tagged full length human TREX1 (expressed in E. coli and purified in house) in reaction buffer (50 mM Tris (pH 7.4), 150 mM NaCl, 2 mM DTT, 0.1 mg/mL BSA, 0.01% (v/v) Tween-20 and 100 mM MgCl2) was added to a 384-well Black ProxiPlate Plus (Perkin Elmer) which already contained compound (150 nL) at varying concentrations as a 10 point dose-response in DMSO. To this was added 7.5 μL of dsDNA substrate (Strand A: 5′ TEX615/GCT AGG CAG 3′; Strand B: 5′ CTG CCT AGC/IAbRQSp (Integrated DNA Technologies)) in reaction buffer. Final concentrations were 150 pM TREX1, 60 nM dsDNA substrate in reaction buffer with 1.0% DMSO (v/v). After 25 minutes at room temperature, reactions were quenched by the addition of 5 μL of stop buffer (same as reaction buffer plus 200 mM EDTA). Final concentrations in the quenched reaction were 112.5 pM TREX1, 45 nM DNA and 50 mM EDTA in a volume of 20 μL. After a 5-minute incubation at room temperature, plates were read in a laser sourced Envision (Perkin-Elmer), measuring fluorescence at 615 nm following excitation w/570 nm light. IC50 values were calculated by comparing the measured fluorescence at 615 nm ratio relative to control wells pre-quenched w/stop buffer (100% inhibition) and no inhibitor (0% inhibition) controls as using non-linear least square four parameter fits and either Genedata or GraphPad Prism (GraphPad Software, Inc.).

HCT116 dual cells = experiment: HCT116 Cell Assay (Lucia luciferase reporter of Type I interferon induction); format: cell-based, human; settings: pBR322/BstNI DNA transfection, Lucia luciferase at 48 h, relative to 10 uM compound 39
Source text: HCT116 dual cells (Invivogen, San Diego, Calif., USA) are derived from the human HCT116 colorectal carcinoma cell line. Cells have been selected for the stable integration of SEAP and Luciferase reporter genes, which expression is under the control of 5 tandem response elements for NF-KB/AP1 and STAT1/STAT2, respectively. The cell line was used to monitor Type I interferon induction and subsequent signaling by measuring the activity of the Lucia luciferase secreted in the culture medium.
HCT116 cells were plated in 96-well plate(s) at 40,000 cells/well in 100 uL DMEM supplemented with 10% FBS and 25 mM Hepes (pH 7.2-7.5). After overnight settling, cells were treated with TREX1i for 4 h (maximum DMSO fraction was 0.1%) before 1.25 ug/mL pBR322/BstNI restriction digest (New England Biolabs, Ipswich, Mass., USA) was transfected with Lipofectamine LTX (ThermoFisher, Grand Island, N.Y., USA), according to product manual recommendations. Briefly, Lipofectamine LTX (0.4 uL/well) was diluted in OptiMEM (5 uL/well). pBR322/BstNI (100 ng/well) was diluted in OptiMEM (5 uL/well) before Plus reagent (0.1 uL/100 ng DNA) was added. After 5 min incubation at room temperature, the DNA mixture was mixed dropwise with the diluted Lipofectamine LTX. After an additional 10 min incubation, the transfection mix (10 uL/well) was added to the cells. Cells were maintained at 37° C. for 48 h before monitoring the Lucia Luciferase activity from the cell culture medium. EC50 values were calculated by comparing the measured luminescence relative to 10 uM compound 39 (100% inhibition) and no inhibitor (0% inhibition) controls using non-linear least-squares four parameter fits in either Genedata Screener or GraphPad Prism (GraphPad Software, Inc.).

[1] = target: T2, human TREX2 (residues M44-A279) (Homo sapiens, UniProt Q9BQ50); experiment: TREX2 Biochemical Assay (fluorescence, dsDNA substrate degradation); settings: 2.5 nM TREX2, 60 nM dsDNA substrate, 25 minutes at room temperature
T2 construct: human TREX2 (residues M44-A279, expressed in E. coli); His-TEV (His tag with TEV site) (N); made in house; host or cells: E. coli
T2 sequence (Q9BQ50 44-279 isoform Q9BQ50-1): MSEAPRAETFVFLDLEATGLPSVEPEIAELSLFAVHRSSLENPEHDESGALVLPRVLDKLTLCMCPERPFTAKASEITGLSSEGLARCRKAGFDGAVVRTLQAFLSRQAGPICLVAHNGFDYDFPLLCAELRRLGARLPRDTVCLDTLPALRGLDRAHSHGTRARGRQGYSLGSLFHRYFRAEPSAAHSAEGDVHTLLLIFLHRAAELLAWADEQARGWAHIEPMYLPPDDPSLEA
Description: Degradation of the dsDNA liberates free fluorophore to produce a fluorescent signal. Specifically, 7.5 μL of N-terminally His-Tev tagged human TREX2 (residues M44-A279, expressed in E. coli and purified in house) in reaction buffer (50 mM Tris (pH 7.4), 150 mM NaCl, 2 mM DTT, 0.1 mg/mL BSA, 0.01% (v/v) Tween-20 and 100 mM MgCl2) was added to a 384-well Black ProxiPlate Plus (Perkin Elmer) which already contained compound (150 nL) at varying concentrations as a 10 point dose-response in DMSO. To this was added 7.5 μL of dsDNA substrate (Strand A: 5′ TEX615/GCT AGG CAG 3′; Strand B: 5′ CTG CCT AGC/IAbRQSp (IDT)) in reaction buffer. Final concentrations were 2.5 nM TREX2, 60 nM dsDNA substrate in reaction buffer with 1.0% DMSO (v/v). After 25 minutes at room temperature, reactions were quenched by the addition of 5 μL of stop buffer (same as reaction buffer plus 200 mM EDTA). Final concentrations in the quenched reaction mixture were […] TREX2, 45 nM DNA and 50 mM EDTA in a volume of 20 μL. After a 5-minute incubation at room temperature, plates were read in a laser sourced Envision (Perkin-Elmer), measuring fluorescence at 615 nm following excitation w/570 nm light. IC50 values were calculated by comparing the measured fluorescence at 615 nm ratio relative to control wells pre-quenched w/stop buffer (100% inhibition) and no inhibitor (0% inhibition) controls as using non-linear least square four parameter fits and either Genedata or GraphPad Prism (GraphPad Software, Inc.).

[2] = Homo sapiens, HCT-116, 4 h pre-treatment

CN(c1nc(C(=O)Nc2cnoc2)c(O)c(=O)n1C)C(c1ccccn1)c1c(Cl)cccc1Cl (single isomer, unassigned) [Example 61]
IC50 (full length human TREX1): < 0.1 µM | EC50 (HCT116 dual cells; 4 h pre-treatment): < 1 µM | IC50 [1]: < 1 µM

CN(c1nc(C(=O)Nc2cnoc2)c(O)c(=O)n1C)C(c1ccccc1)c1ccccn1 (single isomer, unassigned) [Example 42]
IC50 (full length human TREX1): < 0.1 µM | EC50 (HCT116 dual cells; 4 h pre-treatment): 1 to 10 µM | IC50 [1]: 1 to 10 µM

CC(c1c(Cl)cccc1Cl)N(C)c1nc(C(=O)Nc2cnoc2)c(O)c(=O)n1C (single isomer, unassigned) [Example 71]
IC50 (full length human TREX1): < 0.1 µM | EC50 (HCT116 dual cells; 4 h pre-treatment): < 1 µM | IC50 [1]: < 1 µM

CN(Cc1ccc(-c2cnn(C)c2)cc1)c1nc(C(=O)Nc2cnoc2)c(O)c(=O)n1C [Example 25]
IC50 (full length human TREX1): < 0.1 µM | EC50 (HCT116 dual cells; [2]): 10 to 100 µM | IC50 [1]: 1 to 10 µM

Cc1nn(C)cc1-c1cnc(CN(C)c2nc(C(=O)Nc3cnoc3)c(O)c(=O)n2C)cn1 [Example 80]
IC50 (full length human TREX1): < 0.1 µM | EC50 (HCT116 dual cells; [2]): 10 to 100 µM | IC50 [1]: 1 to 10 µM

CN(c1nc(C(=O)Nc2cnoc2)c(O)c(=O)n1C)C(c1ccccc1Cl)C1CC1 (single isomer, unassigned) [Example 68]
IC50 (full length human TREX1): < 0.1 µM | EC50 (HCT116 dual cells; [2]): < 1 µM | IC50 [1]: < 1 µM

CN(Cc1ccc(Cl)c(Cl)c1)c1nc(C(=O)Nc2cnoc2)c(O)c(=O)n1C [Example 7]
IC50 (full length human TREX1): < 0.1 µM | EC50 (HCT116 dual cells; [2]): 1 to 10 µM | IC50 [1]: 1 to 10 µM

CN(c1nc(C(=O)Nc2cnoc2)c(O)c(=O)n1C)C(c1ccccc1)c1ccccc1Cl (single isomer, unassigned) [Example 39]
IC50 (full length human TREX1): < 0.1 µM | EC50 (HCT116 dual cells; [2]): < 1 µM | IC50 [1]: < 1 µM

Cc1nn(C)cc1-c1cncc(CN(C)c2nc(C(=O)Nc3cnoc3)c(O)c(=O)n2C)n1 [Example 79]
IC50 (full length human TREX1): < 0.1 µM | EC50 (HCT116 dual cells; [2]): 10 to 100 µM | IC50 [1]: 1 to 10 µM

CN(Cc1ccccc1C(F)(F)F)c1nc(C(=O)Nc2cnoc2)c(O)c(=O)n1C [Example 11]
IC50 (full length human TREX1): < 0.1 µM | EC50 (HCT116 dual cells; [2]): 1 to 10 µM | IC50 [1]: 1 to 10 µM

CN(c1nc(C(=O)Nc2cnoc2)c(O)c(=O)n1C)C(c1ccccc1)c1cccc(C#N)c1 (single isomer, unassigned) [Example 51]
IC50 (full length human TREX1): < 0.1 µM | EC50 (HCT116 dual cells; 4 h pre-treatment): 1 to 10 µM | IC50 [1]: < 1 µM

CN(C)C(=O)c1ccc(C(c2ccccc2)N(C)c2nc(C(=O)Nc3cnoc3)c(O)c(=O)n2C)c(Cl)c1 (single isomer, unassigned) [Example 94]
IC50 (full length human TREX1): < 0.1 µM | EC50 (HCT116 dual cells; 4 h pre-treatment): < 1 µM | IC50 [1]: < 1 µM

CN(Cc1c(Cl)cccc1Cl)c1nc(C(=O)Nc2cnoc2)c(O)c(=O)n1C [Example 4]
IC50 (full length human TREX1): < 0.1 µM | EC50 (HCT116 dual cells; [2]): 1 to 10 µM | IC50 [1]: < 1 µM

Cc1cccnc1C(c1ccccc1)N(C)c1nc(C(=O)Nc2cnoc2)c(O)c(=O)n1C (single isomer, unassigned) [Example 59]
IC50 (full length human TREX1): < 0.1 µM | EC50 (HCT116 dual cells; 4 h pre-treatment): < 1 µM | IC50 [1]: < 1 µM

CN(c1nc(C(=O)Nc2cnoc2)c(O)c(=O)n1C)C(c1ccccn1)c1c(Cl)cccc1Cl (single isomer, unassigned) [Example 60]
IC50 (full length human TREX1): < 0.1 µM | EC50 (HCT116 dual cells; [2]): 1 to 10 µM | IC50 [1]: 1 to 10 µM

CN(Cc1ccc(Cl)cc1Cl)c1nc(C(=O)Nc2cnoc2)c(O)c(=O)n1C [Example 6]
IC50 (full length human TREX1): < 0.1 µM | EC50 (HCT116 dual cells; [2]): 1 to 10 µM | IC50 [1]: 1 to 10 µM

Cc1ccc(C(c2ccccc2)N(C)c2nc(C(=O)Nc3cnoc3)c(O)c(=O)n2C)cn1 (single isomer, unassigned) [Example 43]
IC50 (full length human TREX1): < 0.1 µM | EC50 (HCT116 dual cells; [2]): 1 to 10 µM | IC50 [1]: < 1 µM

CN(Cc1ccccc1-c1cnn(C)c1)c1nc(C(=O)Nc2cnoc2)c(O)c(=O)n1C [Example 78]
IC50 (full length human TREX1): < 0.1 µM | EC50 (HCT116 dual cells; [2]): 10 to 100 µM | IC50 [1]: 1 to 10 µM

CN(C)C(=O)c1ccc(C(c2ccccc2)N(C)c2nc(C(=O)Nc3cnoc3)c(O)c(=O)n2C)c(Cl)c1 (single isomer, unassigned) [Example 93]
IC50 (full length human TREX1): < 0.1 µM | EC50 (HCT116 dual cells; [2]): 1 to 10 µM | IC50 [1]: 1 to 10 µM

CN(c1nc(C(=O)Nc2cnoc2)c(O)c(=O)n1C)C(c1ccccc1)C1CCOCC1 (single isomer, unassigned) [Example 45]
IC50 (full length human TREX1): < 0.1 µM | EC50 (HCT116 dual cells; [2]): 1 to 10 µM | IC50 [1]: 1 to 10 µM
